{"source": "paper PMC4634704", "about": "(Bioorganic & medicinal chemistry letters, 2015)", "key": {"mGlu5 [1]": {"target": "mGlu5 (Homo sapiens, UniProt P41594)", "sequence (P41594 21-1212)": "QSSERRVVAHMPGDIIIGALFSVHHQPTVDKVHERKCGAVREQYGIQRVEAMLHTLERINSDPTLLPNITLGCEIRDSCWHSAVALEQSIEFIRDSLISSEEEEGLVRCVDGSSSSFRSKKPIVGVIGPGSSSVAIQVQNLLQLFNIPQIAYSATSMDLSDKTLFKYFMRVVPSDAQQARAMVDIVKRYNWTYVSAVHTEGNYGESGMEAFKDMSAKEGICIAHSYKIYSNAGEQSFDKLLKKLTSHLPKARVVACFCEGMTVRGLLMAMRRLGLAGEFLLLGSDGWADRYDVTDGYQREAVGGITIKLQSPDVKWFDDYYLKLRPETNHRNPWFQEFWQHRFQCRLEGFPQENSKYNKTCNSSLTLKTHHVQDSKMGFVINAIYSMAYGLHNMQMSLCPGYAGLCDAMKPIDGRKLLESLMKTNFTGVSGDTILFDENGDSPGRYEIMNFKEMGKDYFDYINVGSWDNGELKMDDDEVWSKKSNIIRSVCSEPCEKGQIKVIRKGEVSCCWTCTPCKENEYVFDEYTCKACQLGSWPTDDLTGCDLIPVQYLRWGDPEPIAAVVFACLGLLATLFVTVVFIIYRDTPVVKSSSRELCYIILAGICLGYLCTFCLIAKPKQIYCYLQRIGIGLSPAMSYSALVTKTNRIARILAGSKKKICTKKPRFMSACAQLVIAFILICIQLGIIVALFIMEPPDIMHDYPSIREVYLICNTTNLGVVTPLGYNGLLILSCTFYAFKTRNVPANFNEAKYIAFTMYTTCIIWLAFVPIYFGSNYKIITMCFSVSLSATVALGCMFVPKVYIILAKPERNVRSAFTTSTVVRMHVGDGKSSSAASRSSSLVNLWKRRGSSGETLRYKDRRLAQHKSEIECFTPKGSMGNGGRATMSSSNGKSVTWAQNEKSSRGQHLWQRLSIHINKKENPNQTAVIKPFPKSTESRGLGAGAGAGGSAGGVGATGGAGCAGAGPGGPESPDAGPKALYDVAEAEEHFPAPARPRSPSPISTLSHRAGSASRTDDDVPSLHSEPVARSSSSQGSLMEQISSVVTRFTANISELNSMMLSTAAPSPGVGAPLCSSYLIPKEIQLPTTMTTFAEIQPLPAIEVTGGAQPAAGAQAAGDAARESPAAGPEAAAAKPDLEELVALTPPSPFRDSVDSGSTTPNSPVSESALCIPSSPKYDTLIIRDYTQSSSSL", "test": "Allosteric agonism in cell lines over expressing mGlu5", "assay_type": "cell-based"}, "mGlu5 [2]": {"target": "mGlu5 (Rattus norvegicus, UniProt P31424)", "sequence (P31424 21-1203)": "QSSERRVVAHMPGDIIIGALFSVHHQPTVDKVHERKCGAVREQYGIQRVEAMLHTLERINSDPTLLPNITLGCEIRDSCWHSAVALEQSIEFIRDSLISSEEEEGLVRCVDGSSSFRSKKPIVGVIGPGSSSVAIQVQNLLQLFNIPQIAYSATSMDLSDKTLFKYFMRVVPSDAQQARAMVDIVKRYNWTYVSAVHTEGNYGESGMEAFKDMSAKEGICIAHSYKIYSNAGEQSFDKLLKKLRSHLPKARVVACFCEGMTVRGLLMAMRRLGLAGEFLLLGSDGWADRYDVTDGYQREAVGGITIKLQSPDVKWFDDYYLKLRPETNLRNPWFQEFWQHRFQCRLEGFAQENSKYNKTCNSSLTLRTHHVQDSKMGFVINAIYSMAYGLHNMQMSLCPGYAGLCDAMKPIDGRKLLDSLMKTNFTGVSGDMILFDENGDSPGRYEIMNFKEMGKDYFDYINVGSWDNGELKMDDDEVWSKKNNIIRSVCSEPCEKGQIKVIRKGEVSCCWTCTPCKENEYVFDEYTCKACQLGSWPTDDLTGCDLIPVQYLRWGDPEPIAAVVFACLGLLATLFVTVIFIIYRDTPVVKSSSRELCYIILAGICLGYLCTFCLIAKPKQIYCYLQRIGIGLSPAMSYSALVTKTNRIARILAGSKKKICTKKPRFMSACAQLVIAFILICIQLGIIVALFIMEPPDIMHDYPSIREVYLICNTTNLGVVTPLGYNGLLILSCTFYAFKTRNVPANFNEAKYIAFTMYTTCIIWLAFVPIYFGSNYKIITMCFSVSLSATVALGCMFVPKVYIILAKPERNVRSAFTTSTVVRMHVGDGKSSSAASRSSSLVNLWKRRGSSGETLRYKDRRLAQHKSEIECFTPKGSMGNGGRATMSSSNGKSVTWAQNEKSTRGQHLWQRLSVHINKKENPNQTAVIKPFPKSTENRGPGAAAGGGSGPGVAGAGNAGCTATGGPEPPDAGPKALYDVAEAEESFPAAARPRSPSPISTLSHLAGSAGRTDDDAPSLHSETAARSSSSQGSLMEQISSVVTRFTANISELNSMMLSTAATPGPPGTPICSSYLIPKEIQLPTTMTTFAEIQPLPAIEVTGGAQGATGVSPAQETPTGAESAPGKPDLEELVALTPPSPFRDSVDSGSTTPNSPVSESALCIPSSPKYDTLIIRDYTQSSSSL", "test": "Allosteric agonism in rat astrocytes", "assay_type": "cell-based", "conditions": "mGlu5 endogenously expressed"}, "[3]": {"test": "Stability in vehicle formulation", "assay_type": "physicochemical", "conditions": "20% β-CD pH 6, 4 mg/mL, up to five days"}, "mGlu1-4,6-8": {"system": "mGlu1-4,6-8", "test": "mGlu family selectivity", "assay_type": "cell-based", "conditions": "selectivity versus other mGlu family members"}, "[4]": {"system": "68 distinct GPCRs, ion channels and transporters", "test": "Broad panel ancillary screen", "assay_type": "binding", "conditions": "68 targets, Eurofins Inc."}, "major CYP450 enzymes": {"system": "major CYP450 enzymes", "test": "CYP450 inhibition"}, "Rat IV cassette PK": {"test": "Rat IV cassette PK", "conditions": "male, Sprague-Dawley, in vivo, 0.2 mg/kg"}, "Rat plasma stability": {"test": "Rat plasma stability", "conditions": "4 h incubation; 37 °C"}, "[5]": {"test": "Hepatic microsomal intrinsic clearance, rat", "conditions": "predicted hepatic clearance"}, "[6]": {"test": "Hepatic microsomal intrinsic clearance, human", "conditions": "predicted hepatic clearance"}, "[7]": {"test": "Simulated gastric fluid solubility and stability", "conditions": "1 h, 37 °C"}, "[8]": {"test": "Terminal brain and plasma levels from AHL studies"}, "[9]": {"test": "Rat modified Irwin study / acute CNS behavioural observation"}, "[10]": {"conditions": "rat, cited from earlier work"}, "[11]": {"conditions": "30 days, 360 mg/kg/day, IND-enabling"}}, "note": "Like-named read-outs stand apart in the source and are kept apart here.", "data": [{"smiles": "CC(=O)N1CCCn2nc(COc3ccccc3)cc21", "note": "[9a, 1-(2-(phenoxymethyl)-6,7-dihydropyrazolo[1,5-a]pyrimidin-4(5H)-yl)ethanone]", "values": [{"measurement": "allosteric agonism", "setting": "mGlu5 [1]", "value": "no allosteric agonism was detected"}, {"measurement": "allosteric agonism", "setting": "mGlu5 [2]", "value": "no allosteric agonism was detected"}, {"measurement": "decomposition in vehicle formulation", "setting": "[3]", "value": "< 5", "unit": "%"}, {"measurement": "FS at mGlu1-4,6-8", "setting": "mGlu1-4,6-8", "value": "< 1.2"}, {"measurement": "activity in broad panel ancillary screen", "setting": "[4]", "value": "no noted activity"}, {"measurement": "clearance", "setting": "Discrete rat PK", "value": "moderate to high"}, {"measurement": "bioavailability", "setting": "Discrete dog PK", "value": "low bioavailability"}, {"measurement": "clearance", "setting": "Discrete dog PK", "value": "moderate to high"}, {"measurement": "exposure", "setting": "Discrete dog PK; IV and oral", "value": "poor exposure"}, {"measurement": "IC50", "setting": "major CYP450 enzymes", "value": "> 30", "unit": "µM"}, {"measurement": "clearance", "setting": "Rat IV cassette PK", "value": "> 4.2", "unit": "L/h/kg"}, {"measurement": "rat plasma stability", "setting": "Rat plasma stability", "value": "stable"}, {"measurement": "CLhep (r)", "setting": "[5]", "value": "> 2.1", "unit": "L/h/kg"}, {"measurement": "CLhep (h)", "setting": "[6]", "value": "> 0.72", "unit": "L/h/kg"}, {"measurement": "decomposition in simulated gastric fluid", "setting": "[7]", "value": "< 5", "unit": "%"}, {"measurement": "terminal estimated unbound brain concentration", "setting": "[8]; AHL 3 mg/kg PO, rat", "value": 199, "unit": "nM"}, {"measurement": "brain concentration", "setting": "[9]; 56.6 mg/kg, rat", "value": 113, "unit": "µM"}, {"measurement": "safety window", "setting": "[9]; modified Irwin concentrations versus AHL MED", "value": "≥ 100", "unit": "fold"}, {"measurement": "behaviour across 30 autonomic and somatomotor endpoints", "setting": "[9]; modified Irwin, 30 mg/kg PO, rat", "value": "no observable alterations in behavior"}, {"measurement": "concentration at 1 h", "setting": "[9]; rat, in vivo, 30 mg/kg, est. Cb,u, 30 mg/kg PO, 1.0 h post-dose", "value": 36, "unit": "µM"}]}, {"smiles": "CC(=O)N1CCCn2nc(COc3ccccc3F)cc21", "note": "[12a]", "values": [{"measurement": "clearance", "setting": "Rat IV cassette PK", "value": "> 4.2", "unit": "L/h/kg"}, {"measurement": "rat plasma stability", "setting": "Rat plasma stability", "value": "stable"}, {"measurement": "terminal brain concentration", "setting": "[8]; AHL 10 mg/kg PO, T90, rat", "value": "not detected"}]}, {"smiles": "CC(=O)N1CCCn2nc(COc3cccc(F)c3)cc21", "note": "[12b]", "values": [{"measurement": "CLhep (r)", "setting": "[5]", "value": "> 2.1", "unit": "L/h/kg"}, {"measurement": "CLhep (h)", "setting": "[6]", "value": "> 0.72", "unit": "L/h/kg"}]}, {"smiles": "O=C(c1ccc(F)cc1)N1CCc2nc(COc3ccccc3)oc2C1", "note": "[compound 1]", "values": [{"measurement": "neurotoxicity", "setting": "[10]; 14 day oral dose-limiting study, 450 mg/kg/day", "value": "no neurotoxicity was observed"}, {"measurement": "exposure", "setting": "[10]; 14 day, 450 mg/kg/day", "value": "273-440 μM-h"}, {"measurement": "Fluoro-Jade C staining", "setting": "[10]; [11]", "value": "induced Fluoro-Jade C staining in a small number of rats"}, {"measurement": "exposure", "setting": "[10]; [11]", "value": "253-416 μM-h"}]}]}
